Laboratory results reported in BindingDB's records for doi:10.1016/j.bmcl.2004.12.045 (Nimbus Therapeutics, 2022).

Legend:
[1] = target: Cytochrome P450 2C9 (Homo sapiens, UniProt P11712); assay: Inhibition of CYP2C9 (unknown origin)
[2] = target: Cytochrome P450 3A5 (Homo sapiens, UniProt P20815); assay: Inhibition of CYP3A5 (unknown origin)
[3] = target: Cytochrome P450 2D6 (Homo sapiens, UniProt P10635); assay: Inhibition of CYP2D6 (unknown origin)
[4] = target: Cytochrome P450 3A4 (Homo sapiens, UniProt P08684); assay: Inhibition of CYP3A4 (unknown origin)
Cytochrome P450 3A4, sequence (P08684 whole entry): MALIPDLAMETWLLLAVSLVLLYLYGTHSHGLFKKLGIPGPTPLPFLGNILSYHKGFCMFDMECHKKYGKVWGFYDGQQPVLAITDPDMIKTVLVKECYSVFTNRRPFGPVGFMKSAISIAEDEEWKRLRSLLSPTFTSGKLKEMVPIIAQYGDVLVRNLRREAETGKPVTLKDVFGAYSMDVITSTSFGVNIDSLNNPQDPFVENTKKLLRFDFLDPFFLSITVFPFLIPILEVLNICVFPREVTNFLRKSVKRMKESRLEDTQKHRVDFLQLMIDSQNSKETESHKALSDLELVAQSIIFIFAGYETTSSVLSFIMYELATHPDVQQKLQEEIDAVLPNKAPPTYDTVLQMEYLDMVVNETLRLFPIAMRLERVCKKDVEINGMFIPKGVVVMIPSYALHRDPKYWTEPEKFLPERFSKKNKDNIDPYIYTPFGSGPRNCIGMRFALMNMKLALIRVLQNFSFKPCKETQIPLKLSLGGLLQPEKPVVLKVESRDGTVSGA

[5] = target: Potassium voltage-gated channel subfamily H member 2 (Homo sapiens, UniProt Q12809); assay: Inhibition of hERG measured by patchclamp assay
Potassium voltage-gated channel subfamily H member 2, sequence (Q12809 whole entry): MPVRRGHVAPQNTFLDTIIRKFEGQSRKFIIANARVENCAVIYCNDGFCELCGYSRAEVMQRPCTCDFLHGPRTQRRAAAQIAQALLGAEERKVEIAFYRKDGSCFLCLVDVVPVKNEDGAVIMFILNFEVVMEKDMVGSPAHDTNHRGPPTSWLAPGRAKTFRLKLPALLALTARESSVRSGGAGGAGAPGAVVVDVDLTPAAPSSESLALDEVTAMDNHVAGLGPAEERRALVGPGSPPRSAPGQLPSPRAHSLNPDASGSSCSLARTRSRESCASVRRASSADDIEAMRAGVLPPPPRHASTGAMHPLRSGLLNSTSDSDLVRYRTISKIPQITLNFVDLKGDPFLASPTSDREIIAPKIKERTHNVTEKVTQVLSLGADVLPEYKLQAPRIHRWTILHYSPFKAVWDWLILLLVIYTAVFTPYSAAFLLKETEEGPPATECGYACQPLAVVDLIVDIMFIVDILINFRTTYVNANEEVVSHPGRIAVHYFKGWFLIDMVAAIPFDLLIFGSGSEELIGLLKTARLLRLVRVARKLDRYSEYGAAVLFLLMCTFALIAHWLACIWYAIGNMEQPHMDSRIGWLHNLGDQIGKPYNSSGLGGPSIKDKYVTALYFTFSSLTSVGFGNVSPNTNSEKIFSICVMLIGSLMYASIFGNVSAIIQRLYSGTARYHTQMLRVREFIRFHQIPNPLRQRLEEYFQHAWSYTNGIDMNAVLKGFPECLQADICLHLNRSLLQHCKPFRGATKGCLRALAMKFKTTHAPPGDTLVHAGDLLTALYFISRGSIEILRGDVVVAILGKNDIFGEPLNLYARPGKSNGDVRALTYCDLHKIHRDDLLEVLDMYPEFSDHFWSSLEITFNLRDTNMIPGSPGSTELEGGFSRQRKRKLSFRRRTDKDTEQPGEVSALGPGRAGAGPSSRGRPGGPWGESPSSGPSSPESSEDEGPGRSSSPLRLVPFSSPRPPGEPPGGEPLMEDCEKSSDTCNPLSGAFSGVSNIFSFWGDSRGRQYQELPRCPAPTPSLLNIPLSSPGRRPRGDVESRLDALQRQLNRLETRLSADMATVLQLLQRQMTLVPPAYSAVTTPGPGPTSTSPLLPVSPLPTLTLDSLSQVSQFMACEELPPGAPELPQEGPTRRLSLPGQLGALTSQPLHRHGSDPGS

[6] = target: T1, Cytochrome P450 2A6 (Homo sapiens, UniProt P11509); assay: Inhibition of CYP2A6 (unknown origin)
T1 sequence (P11509 whole entry): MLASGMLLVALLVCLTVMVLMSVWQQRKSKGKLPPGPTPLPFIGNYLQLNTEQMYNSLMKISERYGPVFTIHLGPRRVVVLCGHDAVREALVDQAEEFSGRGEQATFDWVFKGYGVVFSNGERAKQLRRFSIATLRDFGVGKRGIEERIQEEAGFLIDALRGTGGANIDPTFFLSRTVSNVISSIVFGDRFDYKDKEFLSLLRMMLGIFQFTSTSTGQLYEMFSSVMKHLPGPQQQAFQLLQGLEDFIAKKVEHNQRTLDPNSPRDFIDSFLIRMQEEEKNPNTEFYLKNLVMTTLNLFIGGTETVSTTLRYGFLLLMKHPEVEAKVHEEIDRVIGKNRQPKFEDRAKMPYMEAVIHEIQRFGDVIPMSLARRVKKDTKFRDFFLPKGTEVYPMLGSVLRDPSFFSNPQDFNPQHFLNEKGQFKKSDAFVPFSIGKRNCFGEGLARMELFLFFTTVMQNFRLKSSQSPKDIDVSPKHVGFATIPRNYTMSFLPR

[7] = target: T2, Cytochrome P450 2B6 (Homo sapiens, UniProt P20813); assay: Inhibition of CYP2B6 (unknown origin)
T2 sequence (P20813 whole entry): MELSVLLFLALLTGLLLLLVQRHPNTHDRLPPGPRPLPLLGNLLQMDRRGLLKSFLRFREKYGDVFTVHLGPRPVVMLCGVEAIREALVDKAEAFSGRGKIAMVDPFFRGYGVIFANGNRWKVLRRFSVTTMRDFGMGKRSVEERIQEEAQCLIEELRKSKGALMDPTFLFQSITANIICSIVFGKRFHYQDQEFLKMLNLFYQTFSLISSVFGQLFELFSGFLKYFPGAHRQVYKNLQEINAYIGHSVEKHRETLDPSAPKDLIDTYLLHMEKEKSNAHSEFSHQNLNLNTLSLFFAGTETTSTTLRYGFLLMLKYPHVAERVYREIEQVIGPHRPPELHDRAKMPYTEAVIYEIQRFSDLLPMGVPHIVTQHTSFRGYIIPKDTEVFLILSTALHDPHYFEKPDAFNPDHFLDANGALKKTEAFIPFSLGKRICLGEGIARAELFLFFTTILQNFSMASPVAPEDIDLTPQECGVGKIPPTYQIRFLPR

[8] = target: T3, Cytochrome P450 2C8 (Homo sapiens, UniProt P10632); assay: Inhibition of CYP2C8 (unknown origin)
T3 sequence (P10632 whole entry): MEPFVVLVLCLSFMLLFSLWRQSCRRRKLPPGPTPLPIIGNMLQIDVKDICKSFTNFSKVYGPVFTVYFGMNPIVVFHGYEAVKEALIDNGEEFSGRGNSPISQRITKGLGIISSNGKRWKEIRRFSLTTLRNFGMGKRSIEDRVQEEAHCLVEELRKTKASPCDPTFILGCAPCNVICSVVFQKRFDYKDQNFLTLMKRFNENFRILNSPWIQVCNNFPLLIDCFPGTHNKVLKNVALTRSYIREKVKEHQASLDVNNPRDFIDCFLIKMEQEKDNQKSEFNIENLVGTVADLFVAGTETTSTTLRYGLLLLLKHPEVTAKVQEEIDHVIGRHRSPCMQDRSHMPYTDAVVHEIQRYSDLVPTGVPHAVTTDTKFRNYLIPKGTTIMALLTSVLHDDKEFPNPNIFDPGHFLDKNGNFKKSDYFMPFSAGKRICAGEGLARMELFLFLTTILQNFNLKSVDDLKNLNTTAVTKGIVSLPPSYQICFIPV

[9] = target: Cytochrome P450 2C19 (Homo sapiens, UniProt P33261); assay: Inhibition of CYP2C19 (unknown origin)
Cytochrome P450 2C19, sequence (P33261 whole entry): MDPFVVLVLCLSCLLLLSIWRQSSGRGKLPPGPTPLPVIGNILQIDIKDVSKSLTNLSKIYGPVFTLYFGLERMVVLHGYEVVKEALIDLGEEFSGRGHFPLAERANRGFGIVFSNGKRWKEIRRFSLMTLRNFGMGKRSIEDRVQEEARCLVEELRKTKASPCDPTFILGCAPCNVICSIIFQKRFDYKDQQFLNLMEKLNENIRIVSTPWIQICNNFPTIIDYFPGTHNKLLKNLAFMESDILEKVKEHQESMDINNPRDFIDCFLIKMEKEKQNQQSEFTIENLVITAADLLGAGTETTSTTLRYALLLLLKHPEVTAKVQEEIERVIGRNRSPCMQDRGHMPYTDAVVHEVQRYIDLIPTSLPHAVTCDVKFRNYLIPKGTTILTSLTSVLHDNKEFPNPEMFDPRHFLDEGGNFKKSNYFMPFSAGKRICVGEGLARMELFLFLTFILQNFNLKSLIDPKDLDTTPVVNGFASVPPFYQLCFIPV

[10] = target: Cytochrome P450 2E1 (Homo sapiens, UniProt P05181); assay: Inhibition of CYP2E1 (unknown origin)
Cytochrome P450 2E1, sequence (P05181 whole entry): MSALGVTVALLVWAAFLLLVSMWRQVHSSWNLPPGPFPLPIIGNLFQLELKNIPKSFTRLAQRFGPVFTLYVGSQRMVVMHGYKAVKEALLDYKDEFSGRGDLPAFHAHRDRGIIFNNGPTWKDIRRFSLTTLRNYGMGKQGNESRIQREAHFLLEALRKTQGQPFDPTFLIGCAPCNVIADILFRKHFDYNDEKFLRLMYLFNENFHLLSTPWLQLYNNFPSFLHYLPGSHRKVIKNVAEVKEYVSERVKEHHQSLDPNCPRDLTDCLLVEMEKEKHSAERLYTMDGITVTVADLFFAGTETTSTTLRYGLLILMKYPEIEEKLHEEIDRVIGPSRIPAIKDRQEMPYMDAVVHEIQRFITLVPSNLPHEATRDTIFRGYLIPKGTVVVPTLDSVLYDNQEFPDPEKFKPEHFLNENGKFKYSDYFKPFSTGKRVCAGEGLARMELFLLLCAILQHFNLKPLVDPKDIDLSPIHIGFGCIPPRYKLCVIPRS

[11] = target: T4, Cytochrome P450 1A2 (Homo sapiens, UniProt P05177); assay: Inhibition of CYP1A2 (unknown origin)
T4 sequence (P05177 whole entry): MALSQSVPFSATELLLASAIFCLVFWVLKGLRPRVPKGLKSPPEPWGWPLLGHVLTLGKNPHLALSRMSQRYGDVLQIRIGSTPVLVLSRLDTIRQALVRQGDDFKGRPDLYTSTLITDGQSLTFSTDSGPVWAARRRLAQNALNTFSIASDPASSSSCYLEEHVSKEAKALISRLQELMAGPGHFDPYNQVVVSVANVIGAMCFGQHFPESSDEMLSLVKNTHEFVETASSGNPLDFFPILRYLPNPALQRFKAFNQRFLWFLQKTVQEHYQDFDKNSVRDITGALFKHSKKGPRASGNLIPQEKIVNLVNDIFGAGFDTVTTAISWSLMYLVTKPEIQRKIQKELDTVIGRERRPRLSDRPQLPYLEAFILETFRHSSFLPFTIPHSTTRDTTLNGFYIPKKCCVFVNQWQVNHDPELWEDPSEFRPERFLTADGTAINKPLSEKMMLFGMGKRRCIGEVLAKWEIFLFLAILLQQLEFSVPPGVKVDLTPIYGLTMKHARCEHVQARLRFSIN

Measured: IC50

Cytochrome P450 2C9, sequence (P11712 whole entry): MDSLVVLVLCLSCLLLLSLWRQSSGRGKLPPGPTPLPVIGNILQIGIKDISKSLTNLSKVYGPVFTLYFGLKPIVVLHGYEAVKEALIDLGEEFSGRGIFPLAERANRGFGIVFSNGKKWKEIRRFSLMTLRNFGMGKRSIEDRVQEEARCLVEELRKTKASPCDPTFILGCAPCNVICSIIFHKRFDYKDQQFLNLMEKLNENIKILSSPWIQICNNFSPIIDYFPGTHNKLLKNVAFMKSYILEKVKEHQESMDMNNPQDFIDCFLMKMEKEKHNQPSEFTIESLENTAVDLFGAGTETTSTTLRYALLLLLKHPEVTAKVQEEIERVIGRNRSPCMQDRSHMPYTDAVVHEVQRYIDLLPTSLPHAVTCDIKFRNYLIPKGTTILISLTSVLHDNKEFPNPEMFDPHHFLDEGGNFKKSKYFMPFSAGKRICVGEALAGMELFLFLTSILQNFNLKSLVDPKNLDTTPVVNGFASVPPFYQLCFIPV
Cytochrome P450 3A5, sequence (P20815 whole entry): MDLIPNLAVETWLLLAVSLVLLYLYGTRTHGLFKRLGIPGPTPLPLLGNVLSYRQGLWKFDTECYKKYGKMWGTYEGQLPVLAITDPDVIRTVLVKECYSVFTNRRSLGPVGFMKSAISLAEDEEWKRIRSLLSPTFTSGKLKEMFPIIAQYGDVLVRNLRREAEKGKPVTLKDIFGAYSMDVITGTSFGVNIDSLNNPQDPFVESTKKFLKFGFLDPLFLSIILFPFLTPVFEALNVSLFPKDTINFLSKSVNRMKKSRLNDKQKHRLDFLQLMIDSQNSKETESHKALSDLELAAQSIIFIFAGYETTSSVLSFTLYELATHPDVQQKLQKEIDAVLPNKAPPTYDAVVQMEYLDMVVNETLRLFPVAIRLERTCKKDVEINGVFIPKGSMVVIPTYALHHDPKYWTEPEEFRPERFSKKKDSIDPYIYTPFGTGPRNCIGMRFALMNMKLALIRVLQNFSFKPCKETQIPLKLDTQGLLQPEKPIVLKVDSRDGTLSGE
Cytochrome P450 2D6, sequence (P10635 whole entry): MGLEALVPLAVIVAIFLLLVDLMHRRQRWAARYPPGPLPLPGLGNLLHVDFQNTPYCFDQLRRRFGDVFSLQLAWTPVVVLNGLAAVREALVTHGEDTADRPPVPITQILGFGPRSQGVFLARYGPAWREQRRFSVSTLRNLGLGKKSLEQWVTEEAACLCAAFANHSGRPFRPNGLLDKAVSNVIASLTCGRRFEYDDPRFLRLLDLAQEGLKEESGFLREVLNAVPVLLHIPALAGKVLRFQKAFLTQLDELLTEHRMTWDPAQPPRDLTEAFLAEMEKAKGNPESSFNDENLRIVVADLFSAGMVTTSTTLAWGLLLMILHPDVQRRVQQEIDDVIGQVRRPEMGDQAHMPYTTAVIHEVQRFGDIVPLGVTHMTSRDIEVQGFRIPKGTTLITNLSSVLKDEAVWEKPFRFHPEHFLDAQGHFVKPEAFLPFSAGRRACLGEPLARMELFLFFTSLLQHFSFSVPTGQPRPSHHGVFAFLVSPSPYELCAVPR

O=C1NCc2nc(-c3c(F)cccc3F)cc(Nc3ccc(C(=O)N4CCCC4)cc3)c21 [US10336752, Compound 2]
> 30 µM: all assays above
